In patent publication US20240384350A1, “METHODS OF TREATING CANCER WITH KINASE INHIBITORS” (BOARD OF REGENTS, THE UNIVERSITY OF TEXAS SYSTEM, priority 2021, published 2024):

Legend:
Test in all cases: Ba/F3 drug screening, Cell Titer Glo, IC50 Mut/WT
Type in all cases: cell-based
EGFR S784F = target: T1, EGFR S784F (Homo sapiens, UniProt P00533, S784F); conditions: Classical-Like, 72 hours
T1 construct: expressed in transfected cells; host or cells: Ba/F3 cells, retroviral pBabe-Puro vector (vector made by GeneScript from EGFR WT)
Method: (§1) Data represent the ratio of the IC50 value for a given TKI for cells with a classical-like EGFR mutation to the IC50 value for cells with wildtype EGFR.
(§2) Ba/F3 cell generation, drug screening, and IC50 approximations. Ba/F3 cells were obtained as a gift from Dr. Gordon Mills (MD Anderson Cancer Center), and maintained in RPMI (Sigma) containing 10% FBS, 1% penicillin/streptomycin, and 10 ng/ml recombinant mIL-3 (R&D Biosystems). To establish stable Ba/F3 cell lines, Ba/F3 cells were transduced with retroviruses containing mutant EGFR plasmids for 12-24 hours.
(§3) After 48-72 hours of transduction, 2 μg/ml puromycin (Invitrogen) was added to Ba/F3 cell lines in complete RPMI. To select for EGFR positive cell lines, cells were stained with PE-EGFR (Biolegend) and sorted by FACS. After sorting, EGFR positive cells were maintained in RPMI containing 10% FBS, 1% penicillin/streptomycin, and 1 ng/ml EGF to support cell viability. […] Shortly, cells were plated in 384-well plates (Greiner Bio-One) at 2000-3000 cells per well in technical triplicate. Seven different concentrations of TKIs or DMSO vehicle were added to reach a final volume of 40 μL per well. After 72 hours, 11 μL of Cell Titer Glo (Promega) was added to each well. Plates were incubated for a minimum of 10 minutes, and bioluminescence was determined using a FLUOstar OPTIMA plate reader (BMG LABTECH). Raw bioluminescence values were normalized to DMSO control treated cells, and values were plotted in GraphPad Prism. […] Drug screens were performed in technical triplicate on each plate and either duplicate or triplicate biological replicates.

EGFR L858R/V834L = target: T2, EGFR L858R/V834L (Homo sapiens, UniProt P00533, L858R/V834L); conditions: Classical-Like, 72 hours
T2 construct: expressed in transfected cells; host or cells: Ba/F3 cells, retroviral pBabe-Puro vector

EGFR Ex19del = target: T3, EGFR Ex19del (Homo sapiens, UniProt P00533, DEL746-750); conditions: Classical-Like, 72 hours
T3 construct: expressed in transfected cells; host or cells: Ba/F3 cells, retroviral pBabe-Puro vector

EGFR L858R = target: T4, EGFR L858R (Homo sapiens, UniProt P00533, L858R); conditions: Classical-Like, 72 hours
T4 construct: expressed in transfected cells; host or cells: Ba/F3 cells, retroviral pBabe-Puro vector
Method: as §1, §2, §3

EGFR T725M = target: T5, EGFR T725M (Homo sapiens, UniProt P00533, T725M); conditions: Classical-Like, 72 hours
T5 construct: expressed in transfected cells; host or cells: Ba/F3 cells, retroviral pBabe-Puro vector (vector made by GeneScript from EGFR WT)

EGFR D761N = target: T6, EGFR D761N (Homo sapiens, UniProt P00533, D761N); conditions: Classical-Like, 72 hours
T6 construct: expressed in transfected cells; host or cells: Ba/F3 cells, retroviral pBabe-Puro vector
Method: as §1, §2, §3

EGFR S768dupSVD = target: T7, EGFR S768dupSVD (Homo sapiens, UniProt P00533, DUP768-770); conditions: Ex20, 72 hours
T7 construct: expressed in transfected cells; host or cells: Ba/F3 cells, retroviral pBabe-Puro vector

EGFR H773insNPH = target: T8, EGFR H773insNPH (Homo sapiens, UniProt P00533, INS773NPH); conditions: Ex20, 72 hours
T8 construct: expressed in transfected cells; host or cells: Ba/F3 cells, retroviral pBabe-Puro vector
Method: Data represent the ratio of the IC50 value for a given TKI for cells with an ex20ins EGFR mutation to the IC50 value for cells with wildtype EGFR.
as §2
After 48-72 hours of transduction, 2 μg/ml puromycin (Invitrogen) was added to Ba/F3 cell lines in complete RPMI. To select for EGFR positive cell lines, cells were stained with PE-EGFR (Biolegend) and sorted by FACS. After sorting, EGFR positive cells were maintained in RPMI containing 10% FBS, 1% penicillin/streptomycin, and 1 ng/ml EGF to support cell viability. Drug screening was performed as previously described^41,42. Shortly, cells were plated in 384-well plates (Greiner Bio-One) at 2000-3000 cells per well in technical triplicate. Seven different concentrations of TKIs or DMSO vehicle were added to reach a final volume of 40 μL per well. After 72 hours, 11 μL of Cell Titer Glo (Promega) was added to each well. Plates were incubated for a minimum of 10 minutes, and bioluminescence was determined using a FLUOstar OPTIMA plate reader (BMG LABTECH). Raw bioluminescence values were normalized to DMSO control treated cells, and values were plotted in GraphPad Prism. […] Drug screens were performed in technical triplicate on each plate and either duplicate or triplicate biological replicates. […] Statistical differences between groups were determined by ANOVA as described in the figure legends.

EGFR Ex19del T790M = target: T9, EGFR Ex19del T790M (Homo sapiens, UniProt P00533, DEL746-750/T790M); conditions: T790M-like-3S, 72 hours
T9 construct: expressed in transfected cells; host or cells: Ba/F3

EGFR L718Q T790M = target: T10, EGFR L718Q T790M (Homo sapiens, UniProt P00533, L718Q/T790M); conditions: T790M-like-3R, 72 hours
T10 construct: expressed in transfected cells; host or cells: Ba/F3

EGFR Ex19del/T790M/L792H = target: T11, EGFR Ex19del/T790M/L792H (Homo sapiens, UniProt P00533, DEL746-750/L792H/T790M); conditions: T790M-like-3R, 72 hours
T11 construct: expressed in transfected cells; host or cells: Ba/F3

EGFR L858R/T790M/C797S = target: T12, EGFR L858R/T790M/C797S (Homo sapiens, UniProt P00533, C797S/L858R/T790M); conditions: T790M-like-3R, 72 hours
T12 construct: expressed in transfected cells; host or cells: Ba/F3
Method: Data represent the ratio of the IC50 value for a given TKI for cells with a T790M-like-3R EGFR mutation to the IC50 value for cells with wildtype EGFR.
as §2
After 48-72 hours of transduction, 2 μg/ml puromycin (Invitrogen) was added to Ba/F3 cell lines in complete RPMI. To select for EGFR positive cell lines, cells were stained with PE-EGFR (Biolegend) and sorted by FACS. After sorting, EGFR positive cells were maintained in RPMI containing 10% FBS, 1% penicillin/streptomycin, and 1 ng/ml EGF to support cell viability. […] Shortly, cells were plated in 384-well plates (Greiner Bio-One) at 2000-3000 cells per well in technical triplicate. Seven different concentrations of TKIs or DMSO vehicle were added to reach a final volume of 40 μL per well. After 72 hours, 11 μL of Cell Titer Glo (Promega) was added to each well. Plates were incubated for a minimum of 10 minutes, and bioluminescence was determined using a FLUOstar OPTIMA plate reader (BMG LABTECH). Raw bioluminescence values were normalized to DMSO control treated cells, and values were plotted in GraphPad Prism. […] Drug screens were performed in technical triplicate on each plate and either duplicate or triplicate biological replicates. […] Statistical differences between groups were determined by ANOVA as described in the figure legends.

EGFR E709A = target: T13, EGFR E709A (Homo sapiens, UniProt P00533, E709A); conditions: Ba/F3 cells, EGFR E709A (PACC), Mut/WT
T13 construct: expressed in transfected cells; host or cells: Ba/F3
Method: (§4) Data represent the ratio of the IC50 value for a given TKI for cells with a PACC EGFR mutation to the IC50 value for cells with wildtype EGFR.
as §2
(§5) After 48-72 hours of transduction, 2 μg/ml puromycin (Invitrogen) was added to Ba/F3 cell lines in complete RPMI. To select for EGFR positive cell lines, cells were stained with PE-EGFR (Biolegend) and sorted by FACS. After sorting, EGFR positive cells were maintained in RPMI containing 10% FBS, 1% penicillin/streptomycin, and 1 ng/ml EGF to support cell viability. Drug screening was performed as previously described^41,42. Shortly, cells were plated in 384-well plates (Greiner Bio-One) at 2000-3000 cells per well in technical triplicate. Seven different concentrations of TKIs or DMSO vehicle were added to reach a final volume of 40 μL per well. After 72 hours, 11 μL of Cell Titer Glo (Promega) was added to each well. Plates were incubated for a minimum of 10 minutes, and bioluminescence was determined using a FLUOstar OPTIMA plate reader (BMG LABTECH). Raw bioluminescence values were normalized to DMSO control treated cells, and values were plotted in GraphPad Prism. […] Drug screens were performed in technical triplicate on each plate and either duplicate or triplicate biological replicates.

EGFR E709K = target: T14, EGFR E709K (Homo sapiens, UniProt P00533, E709K); conditions: Ba/F3 cells, EGFR E709K (PACC), Mut/WT
T14 construct: expressed in transfected cells; host or cells: Ba/F3

EGFR G719A/R776C = target: T15, EGFR G719A/R776C (Homo sapiens, UniProt P00533, G719A/R776C); conditions: Ba/F3 cells, EGFR G719A/R776C (PACC), Mut/WT
T15 construct: expressed in transfected cells; host or cells: Ba/F3
Method: as §4, §2, §5

EGFR K757R = target: T16, EGFR K757R (Homo sapiens, UniProt P00533, K757R); conditions: Ba/F3 cells, EGFR K757R (PACC), Mut/WT
T16 construct: expressed in transfected cells; host or cells: Ba/F3

EGFR S768I/V769L = target: T17, EGFR S768I/V769L (Homo sapiens, UniProt P00533, S768I/V769L); conditions: Ba/F3 cells, EGFR S768I/V769L (PACC), Mut/WT
T17 construct: host or cells: Ba/F3

EGFR S768I V774M = target: T18, EGFR S768I V774M (Homo sapiens, UniProt P00533, S768I/V774M); conditions: Ba/F3 cells, EGFR S768I V774M (PACC), Mut/WT
T18 construct: host or cells: Ba/F3

EGFR V774M = target: T19, EGFR V774M (Homo sapiens, UniProt P00533, V774M); conditions: Ba/F3 cells, EGFR V774M (PACC), Mut/WT
T19 construct: host or cells: Ba/F3

EGFR L858R/L718V = target: T20, EGFR L858R/L718V (Homo sapiens, UniProt P00533, L718V/L858R); conditions: Ba/F3 cells, EGFR L858R/L718V (PACC), Mut/WT
T20 construct: host or cells: Ba/F3

EGFR Ex19del G724S = target: T21, EGFR Ex19del G724S (Homo sapiens, UniProt P00533, DEL746-750/G724S); conditions: Ba/F3 cells, EGFR Ex19del G724S (PACC), Mut/WT
T21 construct: expressed in transfected cells; host or cells: Ba/F3

EGFR L858R/L792H = target: T22, EGFR L858R/L792H (Homo sapiens, UniProt P00533, L792H/L858R); conditions: Ba/F3 cells, EGFR L858R/L792H (PACC), Mut/WT
T22 construct: expressed in transfected cells; host or cells: Ba/F3
Method: as §4, §2, §5

EGFR Ex19del/L792H = target: T23, EGFR Ex19del/L792H (Homo sapiens, UniProt P00533, DEL746-750/L792H); conditions: Ba/F3 cells, EGFR Ex19del/L792H (PACC), Mut/WT
T23 construct: expressed in transfected cells; host or cells: Ba/F3

EGFR L858R/C797S = target: T24, EGFR L858R/C797S (Homo sapiens, UniProt P00533, C797S/L858R); conditions: Ba/F3 cells, EGFR L858R/C797S (PACC), Mut/WT
T24 construct: expressed in transfected cells; host or cells: Ba/F3
Method: as §4, §2, §5

EGFR Ex19del L718V = target: T25, EGFR Ex19del L718V (Homo sapiens, UniProt P00533, DEL746-750/L718V); conditions: Ba/F3 cells, EGFR Ex19del L718V (PACC), Mut/WT
T25 construct: expressed in transfected cells; host or cells: Ba/F3
Method: as §4, §2, §5

EGFR Ex19del T854I = target: T26, EGFR Ex19del T854I (Homo sapiens, UniProt P00533, DEL746-750/T854I); conditions: Ba/F3 cells, EGFR Ex19del T854I (PACC), Mut/WT
T26 construct: expressed in transfected cells; host or cells: Ba/F3 (retroviral transduction, pBabe-Puro based vectors)
Method: as §4, §2, §5

Row | SMILES | ratio of IC50 for cells with mutant EGFR to IC50 for cells with wildtype EGFR (Mut/WT) (EGFR S784F) | ratio of IC50 for cells with mutant EGFR to IC50 for cells with wildtype EGFR (Mut/WT) (EGFR L858R/V834L) | ratio of IC50 for cells with mutant EGFR to IC50 for cells with wildtype EGFR (Mut/WT) (EGFR L858R) | ratio of IC50 for cells with mutant EGFR to IC50 for cells with wildtype EGFR (Mut/WT) (EGFR T725M) | ratio of IC50 for cells with mutant EGFR to IC50 for cells with wildtype EGFR (Mut/WT) (EGFR D761N) | ratio of IC50 for cells with mutant EGFR to IC50 for cells with wildtype EGFR (Mut/WT) (EGFR S768dupSVD) | ratio of IC50 for cells with mutant EGFR to IC50 for cells with wildtype EGFR (Mut/WT) (EGFR H773insNPH) | ratio of IC50 for cells with mutant EGFR to IC50 for cells with wildtype EGFR (Mut/WT) (EGFR L718Q T790M) | ratio of IC50 for cells with mutant EGFR to IC50 for cells with wildtype EGFR (Mut/WT) (EGFR Ex19del/T790M/L792H) | ratio of IC50 for cells with mutant EGFR to IC50 for cells with wildtype EGFR (Mut/WT) (EGFR L858R/T790M/C797S) | ratio of the IC50 value for cells with a PACC EGFR mutation to the IC50 value for cells with wildtype EGFR (EGFR E709A) | ratio of the IC50 value for cells with a PACC EGFR mutation to the IC50 value for cells with wildtype EGFR (EGFR E709K) | ratio of the IC50 value for cells with a PACC EGFR mutation to the IC50 value for cells with wildtype EGFR (EGFR G719A/R776C) | ratio of the IC50 value for cells with a PACC EGFR mutation to the IC50 value for cells with wildtype EGFR (EGFR K757R) | ratio of the IC50 value for cells with a PACC EGFR mutation to the IC50 value for cells with wildtype EGFR (EGFR S768I/V769L) | ratio of the IC50 value for cells with a PACC EGFR mutation to the IC50 value for cells with wildtype EGFR (EGFR S768I V774M) | ratio of the IC50 value for cells with a PACC EGFR mutation to the IC50 value for cells with wildtype EGFR (EGFR V774M) | ratio of the IC50 value for cells with a PACC EGFR mutation to the IC50 value for cells with wildtype EGFR (EGFR L858R/L718V) | ratio of the IC50 value for cells with a PACC EGFR mutation to the IC50 value for cells with wildtype EGFR (EGFR Ex19del G724S) | ratio of the IC50 value for cells with a PACC EGFR mutation to the IC50 value for cells with wildtype EGFR (EGFR L858R/L792H) | further results
1 | C=CC(=O)Nc1cc(Nc2nccc(-c3c[nH]c4ccccc34)n2)c(OC)cc1N(C)CCN(C)C [AZ5104] | 0.01428 | 0.4038 | 0.1965 | 0.959 | 0.3285 | 1.73 | 3.997 | 26.6 | 1.486 | 78.11 | 0.219 | 0.207 | 0.2136 | 0.1894 | 0.599 | 0.5809 | 0.5635 | 1.64 | 3.178 | 4.408 | ratio of IC50 for cells with mutant EGFR to IC50 for cells with wildtype EGFR (Mut/WT) (EGFR Ex19del): 0.03035; ratio of IC50 for cells with mutant EGFR to IC50 for cells with wildtype EGFR (Mut/WT) (EGFR Ex19del T790M): 0.1837; ratio of the IC50 value for cells with a PACC EGFR mutation to the IC50 value for cells with wildtype EGFR (EGFR Ex19del/L792H): 1.778; ratio of the IC50 value for cells with a PACC EGFR mutation to the IC50 value for cells with wildtype EGFR (EGFR L858R/C797S): 119.2; ratio of the IC50 value for cells with a PACC EGFR mutation to the IC50 value for cells with wildtype EGFR (EGFR Ex19del L718V): 1.339; ratio of the IC50 value for cells with a PACC EGFR mutation to the IC50 value for cells with wildtype EGFR (EGFR Ex19del T854I): 1.699
2 | C=CC(=O)Nc1cc(Nc2nccc(-n3cc(CN(C)C)c(-c4ccccc4)n3)n2)c(OC)cc1N1CCOCC1 [Lazertinib] | 0.245 | 0.003768 | 0.03702 | 0.004466 | 0.01957 | 4.027 | 5.102 | 3.513 | 1.105 | 23.29 | 0.2759 | 0.2612 | 0.5224 | 0.349 | 0.666 | 0.7678 | 0.9635 | 2.619 | 1.782 | 0.1416 | ratio of the IC50 value for cells with a PACC EGFR mutation to the IC50 value for cells with wildtype EGFR (EGFR Ex19del/L792H): 0.001792; ratio of the IC50 value for cells with a PACC EGFR mutation to the IC50 value for cells with wildtype EGFR (EGFR L858R/C797S): 28.05; ratio of the IC50 value for cells with a PACC EGFR mutation to the IC50 value for cells with wildtype EGFR (EGFR Ex19del L718V): 0.04944; ratio of the IC50 value for cells with a PACC EGFR mutation to the IC50 value for cells with wildtype EGFR (EGFR Ex19del T854I): 1.44
